Measured values as given in patent publication US7470684B2, “Spiropiperidine derivatives as NK3 antagonists” (Hoffmann-La Roche Inc., priority 2007, dated 2008).
Where a name gives a salt, the structure may show the parent alone. Read-outs that look alike come from different tables or passages of the source.

Biological target: T1, human NK3 receptor (Homo sapiens, UniProt P29371)
T1 construct: expressed in transfected cells; host or cells: HEK293 cells, transiently transfected; membranes
T1 sequence (P29371 1-465): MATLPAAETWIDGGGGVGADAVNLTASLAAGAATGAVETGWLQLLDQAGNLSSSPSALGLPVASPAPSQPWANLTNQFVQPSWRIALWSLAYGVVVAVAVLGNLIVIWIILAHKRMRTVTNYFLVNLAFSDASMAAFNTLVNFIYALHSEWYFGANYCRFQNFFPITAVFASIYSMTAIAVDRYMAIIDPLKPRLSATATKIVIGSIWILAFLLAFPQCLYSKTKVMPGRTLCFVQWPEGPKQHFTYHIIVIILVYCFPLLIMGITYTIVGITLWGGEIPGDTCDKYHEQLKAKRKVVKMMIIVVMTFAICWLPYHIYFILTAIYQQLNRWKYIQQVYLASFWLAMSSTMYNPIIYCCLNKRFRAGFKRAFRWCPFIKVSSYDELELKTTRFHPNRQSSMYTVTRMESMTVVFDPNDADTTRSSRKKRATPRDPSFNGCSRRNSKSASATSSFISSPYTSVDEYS
Experiment: [3H]SR142801 competition binding assay
Experimental: [^3H]SR142801 Competition Binding Assay
hNK3 receptor binding experiment were performed using [^3H]SR142801 (Catalog No. TRK1035, specific activity: 74.0 Ci/mmol, Amersham, GE Healthcare UK limited, Buckinghamshire, UK) and membrane isolated from HEK293 cells transiently expressing recombinant human NK3 receptor. After thawing, the membrane homogenates were centrifuged at 48,000×g for 10 min at 4° C., the pellets were resuspended in the 50 mM Tris-HCl, 4 mM MnCl2, 1 μM phosphoramidon, 0.1% BSA binding buffer at pH 7.4 to a final assay concentration of 5 μg protein/well. For inhibition experiments, membranes were incubated with [^3H]SR142801 at a concentration equal to KD value of radioligand and 10 concentrations of the inhibitory compound (0.0003-10 μM) (in a total reaction volume of 500 μl) for 75 min at room temperature (RT). At the end of the incubation, membranes were filtered onto unitfilter (96-well white microplate with bonded GF/C filter preincubated 1 h in 0.3% PEI+0.3% BSA, Packard BioScience, Meriden, Conn.) with a Filtermate 196 harvester (Packard BioScience) and washed 4 times with ice-cold 50 mM Tris-HCl, pH 7.4 buffer. Nonspecific binding was measured in the presence of 10 μM SB222200 for both radioligands. The radioactivity on the filter was counted (5 min) on a Packard Top-count microplate scintillation counter with quenching correction after addition of 45 μl of microscint 40 (Canberra Packard S.A., Zürich, Switzerland) and shaking for 1 h. Inhibition curves were fitted according to the Hill equation: y=100/(1+(x/IC50)^nH), where nH=slope factor using Excel-fit 4 software (Microsoft). IC50 values were derived from the inhibition curve and the affinity constant (Ki) values were calculated using the Cheng-Prussoff equation Ki=IC50/(1+[L]/KD) where [L] is the concentration of radioligand and KD is its dissociation constant at the receptor, derived from the saturation isotherm. All experiments were performed in duplicate and the mean±standard error (SEM) of the individual Ki values was calculated.

[1] = [3H]SR142801 displacement, membranes of HEK293 cells transiently expressing recombinant human NK3 receptor, read-out: hNK3 Ki
[2] = hNK3 Ki, [3H]SR142801 displacement, membranes of HEK293 cells transiently expressing recombinant human NK3 receptor

Row | SMILES | Ki [2] | also measured
1 | CN1C(=O)OC2(CCN(CCC(C(=O)NCc3ccc(-c4csnn4)cc3)c3ccc(Cl)c(Cl)c3)CC2)c2cc(F)ccc21 (stereo not drawn) [Example 109, 2-(3,4-dichlorophenyl)-4-(6-fluoro-1-methyl-2-oxo-1,2-dihydro-1′H-spiro[3,1-benzoxazine-4,4′-piperidin]-1′-yl)-N-[4-(1,2,3-thiadiazol-4-yl)benzyl]butanamide] | – | Ki [1]: 19 nM
2 | Cc1ccc(CN(C)C(=O)C(CCN2CCC3(CC2)OC(=O)Nc2ccc(F)cc23)c2ccc(Cl)c(Cl)c2)cc1 (stereo not drawn) [Example 77, 2-(3,4-dichlorophenyl)-4-(6-fluoro-2-oxo-1,2-dihydro-1′H-spiro[3,1-benzoxazine-4,4′-piperidin]-1′-yl)-N-methyl-N-(4-methylbenzyl)butanamide] | 4.6 nM | –
3 | O=C1Nc2ccc(F)cc2C2(CCN(CCC(C(=O)NCc3cccc(OC(F)(F)F)c3)c3ccc(Cl)c(Cl)c3)CC2)O1 (stereo not drawn) [Example 78, 2-(3,4-dichlorophenyl)-4-(6-fluoro-2-oxo-1,2-dihydro-1′H-spiro[3,1-benzoxazine-4,4′-piperidin]-1′-yl)-N-[(3-trifluoromethoxy)benzyl]butanamide] | 15.4 nM | –
4 | O=C1Nc2ccc(F)cc2C2(CCN(CCC(C(=O)NCc3cccc(C(F)(F)F)c3)c3ccc(F)cc3)CC2)O1 (stereo not drawn) [Example 61, 4-(6-fluoro-2-oxo-1,2-dihydro-1′H-spiro[3,1-benzoxazine-4,4′-piperidin]-1′-yl)-2-(4-fluorophenyl)-N-[3-(trifluoromethyl)benzyl]butanamide] | – | Ki: 88.5 nM
5 | COc1cc(CN(C)C(=O)C(CCN2CCC3(CC2)OC(=O)Nc2ccc(F)cc23)c2ccc(Cl)c(Cl)c2)ccc1OC(F)F (stereo not drawn) [Example 75, 2-(3,4-dichlorophenyl)-N-[4(difluoromethoxy)-3-methoxybenzyl]4-(6-fluoro-2-oxo-1,2-dihydro-1′H-spiro[3,1-benzoxazine-4,4′-piperidin]-1′-yl)-N-methylbutanamide] | 7.7 nM | –
6 | COc1ccc(CNC(=O)C(CCN2CCC3(CC2)OC(=O)N(C)c2ccc(F)cc23)c2ccc(Cl)c(Cl)c2)cc1 (stereo not drawn) [Example 107, 2-(3,4-dichlorophenyl)-4-(6-fluoro-1-methyl-2-oxo-1,2-dihydro-1′H-spiro[3,1-benzoxazine-4,4′-piperidin]-1′-yl)-N-(4-methoxybenzyl)butanamide] | 5.4 nM | –
7 | O=C1Nc2ccc(F)cc2C2(CCN(CCC(C(=O)NCc3ccc(-c4csnn4)cc3)c3ccc(Cl)c(Cl)c3)CC2)O1 (stereo not drawn) [Example 84, 2-(3,4-dichlorophenyl)-4-(6-fluoro-2-oxo-1,2-dihydro-1′H-spiro[3,1-benzoxazine-4,4′-piperidin]-1′-yl)-N-[4-(1,2,3-thiadiazol-4-yl)benzyl]butanamide] | 11.6 nM | –
8 | CN(Cc1ccc(C(F)(F)F)cc1)C(=O)C(CCN1CCC2(CC1)OC(=O)Nc1ccc(F)cc12)c1ccc(F)cc1 (stereo not drawn) [Example 51, 4-(6-fluoro-2-oxo-1,2-dihydro-1′H-spiro[3,1-benzoxazine-4,4′-piperidin]-1′-yl)-2-(4-fluorophenyl)-N-methyl-N-[4-(trifluoromethyl)benzyl]butanamide] | 32.2 nM | –
9 | O=C1Nc2ccc(F)cc2C2(CCN(CCCC(C(=O)NCc3ccccc3OC(F)(F)F)c3ccc(Cl)c(Cl)c3)CC2)O1 (stereo not drawn) [Example 118, 2-(3,4-dichlorophenyl)-5-(6-fluoro-2-oxo-1,2-dihydro-1′H-spiro[3,1-benzoxazine-4,4′-piperidin]-1′-yl)-N-[2-(trifluoromethoxy)benzyl]pentanamide] | 64.4 nM | –
10 | CN(Cc1ccccc1)C(=O)C(CCN1CCC2(CC1)OC(=O)Nc1ccc(F)cc12)c1ccc(Cl)c(Cl)c1 (stereo not drawn) [Example 64, N-benzyl-2-(3,4-dichlorophenyl)-4-(6-fluoro-2-oxo-1,2-dihydro-1′H-spiro[3,1-benzoxazine-4,4′-piperidin]-1′-yl)-N-methylbutanamide] | 12.5 nM | –
11 | CN1C(=O)OC2(CCN(CCC(C(=O)NCc3ccc(C#N)cc3)c3ccc(Cl)c(Cl)c3)CC2)c2cc(F)ccc21 (stereo not drawn) [Example 111, N-(4-cyanobenzyl)-2-(3,4-dichlorophenyl)-4-(6-fluoro-1-methyl-2-oxo-1,2-dihydro-1′H-spiro[3,1-benzoxazine-4,4′-piperidin]-1′-yl)butanamide] | 3.1 nM | –
12 | CN(Cc1ccc(C(F)(F)F)cc1)C(=O)C(CCN1CCC2(CC1)OC(=O)Nc1ccc(F)cc12)c1ccc(Cl)c(Cl)c1 (stereo not drawn) [Example 68, 2-(3,4-dichlorophenyl)-4-(6-fluoro-2-oxo-1,2-dihydro-1′H-spiro[3,1-benzoxazine-4,4′-piperidin]-1′-yl)-N-methyl-N-[4-(trifluoromethyl)benzyl]butanamide] | 1.4 nM | –
13 | CN(Cc1ccc(N2CCOCC2)cc1)C(=O)C(CCN1CCC2(CC1)OC(=O)Nc1ccc(F)cc12)c1ccc(Cl)c(Cl)c1 (stereo not drawn) [Example 70, 2-(3,4-dichlorophenyl)-4-(6-fluoro-2-oxo-1,2-dihydro-1′H-spiro[3,1-benzoxazine-4,4′-piperidin]-1′-yl)-N-methyl-N-(4-morpholin-4-ylbenzyl)butanamide] | – | Ki [1]: 98 nM
14 | CN(Cc1ccc(Cl)cc1)C(=O)C(CCN1CCC2(CC1)OC(=O)Nc1ccc(F)cc12)c1ccc(Cl)c(Cl)c1 (stereo not drawn) [Example 15, N-(4-chlorobenzyl)-2-(3,4-dichlorophenyl)-4-(6-fluoro-2-oxo-1,2-dihydro-1′H-spiro[3,1-benzoxazine-4,4′-piperidin]-1′-yl)-N-methylbutanamide] | 3.7 nM | –
15 | CN(Cc1cccc(C(F)(F)F)c1)C(=O)C(CCCN1CCC2(CC1)OC(=O)Nc1ccc(F)cc12)c1ccc(Cl)c(Cl)c1 (stereo not drawn) [Example 130, 2-(3,4-dichlorophenyl)-5-(6-fluoro-2-oxo-1,2-dihydro-1′H-spiro[3,1-benzoxazine-4,4′-piperidin]-1′-yl)-N-methyl-N-[3-(trifluoromethyl)benzyl]pentanamide] | 91.9 nM | –
16 | CCN(Cc1ccccc1F)C(=O)C(CCN1CCC2(CC1)OC(=O)Nc1ccc(F)cc12)c1ccc(Cl)c(Cl)c1 (stereo not drawn) [Example 12, 2-(3,4-dichlorophenyl)-N-ethyl-N-(2-fluorobenzyl)-4-(6-fluoro-2-oxo-1,2-dihydro-1′H-spiro[3,1-benzoxazine-4,4′-piperidin]-1′-yl)butanamide] | 31.2 nM | –
17 | CN(Cc1ccccc1)C(=O)C(CCN1CCC2(CC1)OC(=O)N(C)c1ccc(F)cc12)c1ccc(Cl)c(Cl)c1 (stereo not drawn) [Example 89, N-benzyl-2-(3,4-dichlorophenyl)-4-(6-fluoro-1-methyl-2-oxo-1,2-dihydro-1′H-spiro[3,1-benzoxazine-4,4′-piperidin]-1′-yl)-N-methyl-butanamide] | 0.8 nM | –
18 | CN(Cc1ccccc1)C(=O)C(CCN1CCC2(CC1)OC(=O)Nc1ccc(F)cc12)c1ccc(Cl)c(Cl)c1 (stereo not drawn) [Example 1, N-benzyl-2-(3,4-dichlorophenyl)-4-(6-fluoro-2-oxo-1,2-dihydro-1′H-spiro[3,1-benzoxazine-4,4′-piperidin]-1′-yl)-N-methylbutanamide hydrochloride] | 11.2 nM | –
19 | CN1C(=O)OC2(CCN(CCC(C(=O)NCc3ccccc3OC(F)(F)F)c3ccc(Cl)c(Cl)c3)CC2)c2cc(F)ccc21 (stereo not drawn) [Example 91, 2-(3,4-dichlorophenyl)-4-(6-fluoro-1-methyl-2-oxo-1,2-dihydro-1′H-spiro[3,1-benzoxazine-4,4′-piperidin]-1′-yl)-N-[2-(trifluoromethoxy)benzyl]butanamide] | 6.5 nM | –
20 | CN1C(=O)OC2(CCN(CCC(C(=O)NC(c3ccc(Cl)cc3)c3nccn3C)c3ccc(Cl)c(Cl)c3)CC2)c2cc(F)ccc21 (stereo not drawn) [Example 88, N-[(4-chlorophenyl)(1-methyl-1H-imidazol-2-yl)methyl]-2-(3,4-dichlorophenyl)-4-(6-fluoro-1-methyl-2-oxo-1,2-dihydro-1′H-spiro[3,1-benzoxazine-4,4′-piperidin]-1′-yl)butanamide] | – | Ki: 72.2 nM
21 | O=C1Nc2ccc(F)cc2C2(CCN(CCC(C(=O)NCc3ccc(OC(F)(F)F)cc3)c3ccc(Cl)c(Cl)c3)CC2)O1 (stereo not drawn) [Example 85, 2-(3,4-dichlorophenyl)-4-(6-fluoro-2-oxo-1,2-dihydro-1′H-spiro[3,1-benzoxazine-4,4′-piperidin]-1′-yl)-N-[4-(trifluoromethoxy)benzyl]butanamide] | 69.9 nM | –
